In ChEMBL document CHEMBL1201862, “PubChem BioAssay data set” (2004):
Activity calls are given as the source filed them.

Assays:
[1] = target: Benomyl/methotrexate resistance protein (Candida albicans, UniProt P28873); test: Candida albicans Mdr1 pump inhibition curves – singleplex, Cherry Pick1 hits, dose response (AID 588608); type: functional
[2] = target: Ras and Rab interactor 1/Tyrosine-protein kinase ABL1 (Homo sapiens, UniProt P00519+Q13671); type: functional;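 further: biochemical TR-FRET dose-response test measuring inhibition of binding between Rin1 and Abl proteins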
Sequence of Ras and Rab interactor 1/Tyrosine-protein kinase ABL1 (P00519 whole entry): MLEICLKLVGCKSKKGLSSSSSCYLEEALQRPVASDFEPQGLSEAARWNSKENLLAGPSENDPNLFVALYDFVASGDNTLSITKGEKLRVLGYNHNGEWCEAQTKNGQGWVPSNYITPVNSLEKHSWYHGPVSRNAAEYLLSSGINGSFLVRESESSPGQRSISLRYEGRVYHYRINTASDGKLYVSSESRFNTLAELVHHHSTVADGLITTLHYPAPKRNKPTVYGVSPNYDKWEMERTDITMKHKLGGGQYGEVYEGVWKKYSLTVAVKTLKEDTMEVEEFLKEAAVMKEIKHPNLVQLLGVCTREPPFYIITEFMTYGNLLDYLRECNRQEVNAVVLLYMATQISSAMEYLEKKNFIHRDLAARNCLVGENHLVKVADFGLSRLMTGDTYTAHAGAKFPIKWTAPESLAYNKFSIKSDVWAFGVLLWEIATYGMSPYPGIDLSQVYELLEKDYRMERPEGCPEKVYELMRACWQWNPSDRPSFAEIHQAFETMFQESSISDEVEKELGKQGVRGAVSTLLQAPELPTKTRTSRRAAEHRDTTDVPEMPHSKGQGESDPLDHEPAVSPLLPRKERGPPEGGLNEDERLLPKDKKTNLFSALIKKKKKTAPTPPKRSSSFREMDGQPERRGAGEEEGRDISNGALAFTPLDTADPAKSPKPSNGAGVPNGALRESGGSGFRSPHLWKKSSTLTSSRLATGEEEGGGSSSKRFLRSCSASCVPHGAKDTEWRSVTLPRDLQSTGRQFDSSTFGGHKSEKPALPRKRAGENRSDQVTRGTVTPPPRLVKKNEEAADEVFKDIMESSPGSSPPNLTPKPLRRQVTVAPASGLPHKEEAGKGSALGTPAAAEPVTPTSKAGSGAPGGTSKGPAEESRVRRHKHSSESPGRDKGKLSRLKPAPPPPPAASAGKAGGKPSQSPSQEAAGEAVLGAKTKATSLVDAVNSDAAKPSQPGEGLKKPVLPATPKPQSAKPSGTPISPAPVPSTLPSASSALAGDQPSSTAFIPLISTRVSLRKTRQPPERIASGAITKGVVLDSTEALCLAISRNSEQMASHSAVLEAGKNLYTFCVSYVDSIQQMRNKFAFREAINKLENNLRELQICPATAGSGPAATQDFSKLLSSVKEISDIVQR
Sequence of Ras and Rab interactor 1/Tyrosine-protein kinase ABL1 (Q13671 whole entry): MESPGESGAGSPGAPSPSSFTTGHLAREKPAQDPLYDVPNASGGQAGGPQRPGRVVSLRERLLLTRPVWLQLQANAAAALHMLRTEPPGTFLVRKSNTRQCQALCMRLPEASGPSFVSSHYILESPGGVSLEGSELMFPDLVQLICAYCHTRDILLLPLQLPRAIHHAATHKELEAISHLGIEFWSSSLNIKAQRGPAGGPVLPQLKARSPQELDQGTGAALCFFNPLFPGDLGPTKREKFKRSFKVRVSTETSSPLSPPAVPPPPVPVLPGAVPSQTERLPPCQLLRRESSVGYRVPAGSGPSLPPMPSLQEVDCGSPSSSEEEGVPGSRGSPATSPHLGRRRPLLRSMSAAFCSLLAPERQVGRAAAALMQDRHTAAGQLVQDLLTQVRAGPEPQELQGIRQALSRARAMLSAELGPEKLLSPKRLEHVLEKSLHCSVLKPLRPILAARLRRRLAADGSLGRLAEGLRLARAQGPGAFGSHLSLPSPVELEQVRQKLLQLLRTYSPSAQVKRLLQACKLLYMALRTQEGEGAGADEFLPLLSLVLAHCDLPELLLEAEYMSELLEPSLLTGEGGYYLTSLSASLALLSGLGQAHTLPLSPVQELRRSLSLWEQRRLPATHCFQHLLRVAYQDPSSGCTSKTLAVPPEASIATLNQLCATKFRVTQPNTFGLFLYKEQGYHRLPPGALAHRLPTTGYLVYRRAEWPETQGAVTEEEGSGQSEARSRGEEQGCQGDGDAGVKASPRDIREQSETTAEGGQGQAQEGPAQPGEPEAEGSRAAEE

[3] = system: CHO-K1; test: (§1) Counterscreen for antagonists of the orexin 1 receptor (OX1R; HCRTR1): Homogeneous time resolved fluorescence (HTRF)-based cell-based dose response assay to identify antagonists of the parental CHO-K1 cell line. [Related pubchem assays (depositor defined):AID434989, AID435008, AID463079, AID485270, AID492963, AID492964, AID492965, AID493232, AID504699, AID504701]; type: functional; conditions: Cricetulus griseus
[4] = as §1, with “Fluorescence-based” for “Homogeneous time resolved fluorescence (HTRF)-based”, “cell-based high throughput” for “cell-based”, “CHO” for “CHO-K1”; type: functional
[5] = target: T1, Orexin/Hypocretin receptor type 1 (Homo sapiens, UniProt O43613); test: Homogeneous Time Resolved Fluorescence (HTRF)-based cell-based high throughput dose response assay for antagonists of the orexin 1 receptor (OX1R; HCRTR1). [Related pubchem assays (depositor defined):AID434989, AID435008, AID463079, AID485270, AID492963, AID492964, AID492965, AID493232, AID504717, AID504718]; type: functional
T1 sequence (O43613 whole entry): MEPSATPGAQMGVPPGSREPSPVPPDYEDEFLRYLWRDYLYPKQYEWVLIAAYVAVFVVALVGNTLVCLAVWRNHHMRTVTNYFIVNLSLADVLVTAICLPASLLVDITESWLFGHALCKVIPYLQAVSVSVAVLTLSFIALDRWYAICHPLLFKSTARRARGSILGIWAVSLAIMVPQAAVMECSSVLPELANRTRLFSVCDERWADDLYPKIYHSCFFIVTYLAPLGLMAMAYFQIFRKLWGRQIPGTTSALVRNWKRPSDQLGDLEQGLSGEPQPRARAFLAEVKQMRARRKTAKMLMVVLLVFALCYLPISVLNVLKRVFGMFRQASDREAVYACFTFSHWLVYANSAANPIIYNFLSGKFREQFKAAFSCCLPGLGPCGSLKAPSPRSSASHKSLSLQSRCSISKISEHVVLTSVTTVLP

[6] = target: T1, Orexin/Hypocretin receptor type 1; test: Fluorescence-based cell-based high throughput dose response assay for antagonists of the orexin 1 receptor (OX1R; HCRTR1). [Related pubchem assays (depositor defined):AID434989, AID435008, AID463079, AID485270, AID492963, AID492964, AID492965, AID493232, AID504717, AID504718]; type: functional
[7] = target: T2, Orexin receptor type 2 (Homo sapiens, UniProt O43614); test: Counterscreen assay for antagonists of the orexin 1 receptor (OX1R; HCRTR1): Fluorescence-based cell-based dose response assay for antagonists of the orexin 2 receptor (OX2R; HCRTR2), run by assay provider.; type: functional
T2 sequence (O43614 whole entry): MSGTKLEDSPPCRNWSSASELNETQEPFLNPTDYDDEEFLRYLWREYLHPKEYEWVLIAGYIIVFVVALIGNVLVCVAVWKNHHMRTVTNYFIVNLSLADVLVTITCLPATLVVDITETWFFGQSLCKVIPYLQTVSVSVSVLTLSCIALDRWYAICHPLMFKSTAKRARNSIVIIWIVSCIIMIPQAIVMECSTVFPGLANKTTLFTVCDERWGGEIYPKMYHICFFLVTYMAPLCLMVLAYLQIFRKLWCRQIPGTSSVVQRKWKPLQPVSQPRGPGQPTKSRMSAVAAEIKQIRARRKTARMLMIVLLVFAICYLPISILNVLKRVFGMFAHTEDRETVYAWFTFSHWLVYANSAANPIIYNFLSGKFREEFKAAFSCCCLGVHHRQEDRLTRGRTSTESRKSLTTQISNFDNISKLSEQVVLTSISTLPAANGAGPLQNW

[8] = target: T2, Orexin receptor type 2; test: Counterscreen assay for antagonists of the orexin 1 receptor (OX1R; HCRTR1): Homogeneous Time Resolved Fluorescence (HTRF)-based cell-based dose response assay for antagonists of the orexin 2 receptor (OX2R; HCRTR2), run by assay provider.; type: functional
[9] = NIH-3T3 fibroblast cytotoxicity, dose response, cytotoxicity control, cell-based, fluorescence, Alamar Blue, secondary assay (AID 2327); type: functional;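 further: NIH-3T3 mouse fibroblasts cultured with fluconazole at 8 µg/mL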
[10] = luciferase reporter signal suppression in cells – H4 neuroglioma cells, luminescence, dose response (AID 1990); type: functional, cell-based
[11] = system: Streptococcus sp. 'group A'; test: Streptococcus pyogenes SK(-)GAS viability under kanamycin – luminescence, BacTiterGlo, confirmation, counter-screen for streptokinase expression inhibitor project, dose response (AID 1900); type: functional, organism-based
[12] = Luminescence Cell-Based Dose Response HTS to Identify Inhibitors of 5'UTR Stem-Loop Driven Prion Protein mRNA Translation in H4 Neuroglioblastoma Cells. [Related pubchem assays: 1827 (Project Summary), 1813 (Primary HTS)]; type: functional
[13] = alpha-synuclein stem-loop luciferase translation blockers – H4 neuroglioma cells, luminescence, confirmation (AID 1988); type: functional, cell-based
[14] = fluconazole-exposed Candida albicans growth modulators – fluorescence, retest, confirmation (AID 2467); type: functional, cell-based
[15] = Trypanosoma cruzi growth suppression in host cells – NIH3T3 host cells, beta-gal luminescence, confirmation (AID 2044); type: functional, cell-based;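 further: intracellular parasites grown in NIH/3T3 mouse fibroblasts as host cells; luminescent beta-galactosidase reporter signal from transgenic T. cruzi replicating inside host cells; inhibitors lower the luminescence signal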
[16] = target: Serine/threonine-protein phosphatase (Candida dubliniensis (strain CD36 / CBS 7987 / NCPF 3949 / NRRLY-17841) (Yeast), UniProt B9W6M3); test: blockers of CaCl2-induced CDRE-lacZ signaling – S. cerevisiae, luminescence, secondary, dose response (AID 2388); type: functional, cell-based;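 further: yeast reporter cells carrying a calcineurin-responsive lacZ construct stimulated with calcium chloride; luminescent beta-galactosidase reporter signal in whole cells rather than isolated phosphatase activity; potency for inhibition where a drop in reporter signal means calcineurin blockade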
Sequence of Serine/threonine-protein phosphatase (B9W6M3 whole entry): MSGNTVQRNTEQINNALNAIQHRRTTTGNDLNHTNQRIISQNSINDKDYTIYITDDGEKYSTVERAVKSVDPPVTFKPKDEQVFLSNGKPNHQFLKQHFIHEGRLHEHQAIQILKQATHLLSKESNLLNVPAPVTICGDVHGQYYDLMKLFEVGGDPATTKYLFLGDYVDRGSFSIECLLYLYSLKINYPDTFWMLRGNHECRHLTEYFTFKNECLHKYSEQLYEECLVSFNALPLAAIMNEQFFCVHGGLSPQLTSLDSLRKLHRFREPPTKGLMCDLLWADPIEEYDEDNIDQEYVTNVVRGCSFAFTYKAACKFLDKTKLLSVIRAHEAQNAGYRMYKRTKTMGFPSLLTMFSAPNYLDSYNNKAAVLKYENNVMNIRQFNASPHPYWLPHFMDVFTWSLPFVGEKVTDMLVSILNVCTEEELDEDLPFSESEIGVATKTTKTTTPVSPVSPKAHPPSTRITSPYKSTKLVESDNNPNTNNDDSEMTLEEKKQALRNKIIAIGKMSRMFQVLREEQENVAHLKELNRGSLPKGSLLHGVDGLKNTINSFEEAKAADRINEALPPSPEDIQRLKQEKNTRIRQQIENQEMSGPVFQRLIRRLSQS

[17] = NIH3T3 cell viability loss – ATP luminescence, mouse fibroblasts, counter-screen, dose response (AID 2010); type: functional, cell-based;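 further: cells exposed to compound for about 90 hours before reading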
[18] = system: Streptococcus; test: GAS UMAA2166 growth inhibition – luminescence, BacTiterGlo, counter-screen for streptokinase expression inhibitor project, dose response (AID 1915); type: functional, organism-based;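 further: potency for reduction of bacterial viability or growth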
[19] = system: INS1; test: INS-1E survival protection against cytokine death – cell-based, luminescence, retest, dose response (AID 449756); type: functional; conditions: Rattus norvegicus;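 further: cell death triggered by IL-1 beta plus TNF-alpha plus IFN-gamma mixture; protective hits raise ATP signal compared with cytokine alone wells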
[20] = target: ATP-dependent molecular chaperone HSP82 (Candida albicans (strain WO-1) (Yeast), UniProt C4YTQ8); test: steroid-induced GRE reporter decrease in yeast – S. cerevisiae, luminescence, Hsp90 inhibitor project, dose response (AID 2400); type: functional, cell-based;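 further: beta-galactosidase luminescence from glucocorticoid response element reporter as proxy for Hsp90 function; inhibitor potency where signal loss means Hsp90 inhibition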
Sequence of ATP-dependent molecular chaperone HSP82 (C4YTQ8 whole entry): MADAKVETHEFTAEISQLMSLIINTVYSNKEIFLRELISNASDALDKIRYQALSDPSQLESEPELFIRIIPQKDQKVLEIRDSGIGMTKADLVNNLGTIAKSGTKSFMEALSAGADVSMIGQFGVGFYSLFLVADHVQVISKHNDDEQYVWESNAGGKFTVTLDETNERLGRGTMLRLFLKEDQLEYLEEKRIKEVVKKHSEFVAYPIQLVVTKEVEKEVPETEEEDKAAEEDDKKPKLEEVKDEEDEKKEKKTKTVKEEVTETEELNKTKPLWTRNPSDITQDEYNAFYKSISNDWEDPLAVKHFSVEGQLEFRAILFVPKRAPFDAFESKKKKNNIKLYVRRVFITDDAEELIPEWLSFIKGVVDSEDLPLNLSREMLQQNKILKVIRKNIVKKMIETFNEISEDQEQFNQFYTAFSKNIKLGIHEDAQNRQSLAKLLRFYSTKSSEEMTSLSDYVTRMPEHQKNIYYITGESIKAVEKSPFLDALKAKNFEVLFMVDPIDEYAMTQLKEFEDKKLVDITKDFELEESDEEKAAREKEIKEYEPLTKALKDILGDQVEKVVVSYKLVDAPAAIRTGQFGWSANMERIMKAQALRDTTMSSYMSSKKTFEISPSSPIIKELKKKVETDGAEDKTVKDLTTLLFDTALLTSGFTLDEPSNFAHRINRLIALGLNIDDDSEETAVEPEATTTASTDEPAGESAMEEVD

[21] = mammalian cell viability loss – Alamar Blue, dry powder, cytotoxicity control for antifungal single agent project, dose response (AID 602188); type: functional, cell-based
[22] = target: T3, Streptokinase A (Streptococcus pyogenes serotype M1, UniProt P10520); test: viability-normalized secreted streptokinase activity reduction – plasminogen activation absorbance, OD405, dose response (AID 1914); type: functional, Streptococcus pyogenes M1 GAS;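 further: secreted streptokinase activity via plasminogen activation per viability signal from cell pellet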
T3 sequence (P10520 whole entry): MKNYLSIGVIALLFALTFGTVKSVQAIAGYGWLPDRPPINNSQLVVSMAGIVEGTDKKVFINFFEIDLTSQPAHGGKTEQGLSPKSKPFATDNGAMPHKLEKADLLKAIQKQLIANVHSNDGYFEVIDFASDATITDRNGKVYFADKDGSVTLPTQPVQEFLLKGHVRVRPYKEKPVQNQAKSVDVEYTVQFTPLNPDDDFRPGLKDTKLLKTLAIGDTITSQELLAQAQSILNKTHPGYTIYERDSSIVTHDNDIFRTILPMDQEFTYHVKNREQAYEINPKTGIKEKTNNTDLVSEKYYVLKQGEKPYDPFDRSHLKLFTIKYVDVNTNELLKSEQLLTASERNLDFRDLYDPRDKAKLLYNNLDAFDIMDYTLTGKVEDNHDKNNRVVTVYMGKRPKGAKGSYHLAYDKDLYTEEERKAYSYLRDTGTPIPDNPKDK

[23] = target: Tyrosine-protein phosphatase non-receptor type 11 (Homo sapiens, UniProt Q06124); test: PTPN11 enzyme inhibitors – biochemical, selectivity assay for STEP inhibitor project, dose response (AID 602367); type: functional; conditions: read-out: IC50_Mean
[24] = target: Tyrosine-protein phosphatase non-receptor type 5 (Homo sapiens, UniProt P54829); test: PTPN5 enzyme inhibition – biochemical, fluorescence intensity, uHTS hits, confirmation (AID 602372); type: functional; conditions: read-out: IC50_Mean
[25] = target: Dual specificity protein phosphatase 3 (Homo sapiens, UniProt P51452); test: VHR phosphatase inhibition, dose response, selectivity assay for STEP inhibitor project, biochemical (AID 602374); type: functional; conditions: read-out: IC50_Mean
Sequence of Dual specificity protein phosphatase 3 (P51452 whole entry): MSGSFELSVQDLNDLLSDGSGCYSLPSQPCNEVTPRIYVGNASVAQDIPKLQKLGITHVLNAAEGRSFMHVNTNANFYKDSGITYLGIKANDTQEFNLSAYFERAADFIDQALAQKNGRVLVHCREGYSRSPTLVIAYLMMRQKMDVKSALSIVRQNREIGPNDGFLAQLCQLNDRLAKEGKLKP

[26] = target: Potassium voltage-gated channel subfamily KQT member 2 (Rattus norvegicus, UniProt O88943); test: blockers of KCNQ2 channel current – cell-based, automated electrophysiology, set II, rat KCNQ2, dose response (AID 588637); type: functional
[27] = target: Melanin-concentrating hormone receptor 1 (Homo sapiens, UniProt Q99705); test: Late-stage fluorescence-based counterscreen for antagonists of the G-protein coupled receptor 7 (GPR7): cell-based dose response assay to identify antagonists of the melanin-concentrating hormone receptor 1 (MCHR1) Set 6.; type: functional
Sequence of Melanin-concentrating hormone receptor 1 (Q99705 whole entry): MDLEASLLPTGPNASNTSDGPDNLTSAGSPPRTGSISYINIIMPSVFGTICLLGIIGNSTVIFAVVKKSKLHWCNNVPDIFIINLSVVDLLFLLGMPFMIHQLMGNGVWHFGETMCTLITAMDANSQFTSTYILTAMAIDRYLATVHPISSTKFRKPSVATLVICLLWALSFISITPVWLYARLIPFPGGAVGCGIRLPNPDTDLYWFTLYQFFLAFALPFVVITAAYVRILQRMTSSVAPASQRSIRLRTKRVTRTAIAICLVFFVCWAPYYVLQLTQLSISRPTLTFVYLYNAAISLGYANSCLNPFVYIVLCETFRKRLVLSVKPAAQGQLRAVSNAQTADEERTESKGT

[28] = target: T4, Neuropeptides B/W receptor type 1 (Homo sapiens, UniProt P48145); test: human NPBW1 receptor blockade, IC50 – cell-based, fluorescence, dose response, set 6, late-stage follow-up (AID 588583); type: functional
T4 sequence (P48145 whole entry): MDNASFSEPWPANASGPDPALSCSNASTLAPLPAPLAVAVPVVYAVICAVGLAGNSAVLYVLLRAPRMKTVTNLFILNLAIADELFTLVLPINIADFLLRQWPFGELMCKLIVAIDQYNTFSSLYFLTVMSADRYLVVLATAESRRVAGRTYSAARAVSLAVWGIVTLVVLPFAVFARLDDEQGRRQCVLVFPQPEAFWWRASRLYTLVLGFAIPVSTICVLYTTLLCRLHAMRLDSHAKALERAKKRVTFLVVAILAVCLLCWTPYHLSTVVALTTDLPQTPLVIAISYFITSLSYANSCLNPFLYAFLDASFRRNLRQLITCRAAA

[29] = target: Melanocortin receptor 4 (Homo sapiens, UniProt P32245); type: functional, cell-based;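 further: Cell-based assay with luminescence read-out, confirmatory dose-response testing for agonist activity of biased ligands at MC4R; human U2OS cells with tagged receptor and beta-arrestin; potency of agonists that increase receptor coupling to beta-arrestin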
[30] = target: Mitochondrial peptide methionine sulfoxide reductase (Bos taurus, UniProt P54149); type: functional;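 further: absorbance read-out, biochemical high-throughput dose-response screen for MsrA inhibitors, confirmatory; recombinant bovine MsrA coupled to E. coli TrxB with NADPH and selenocystamine; potency is for inhibitors of MsrA activity on DMSO substrate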
Sequence of Mitochondrial peptide methionine sulfoxide reductase (P54149 whole entry): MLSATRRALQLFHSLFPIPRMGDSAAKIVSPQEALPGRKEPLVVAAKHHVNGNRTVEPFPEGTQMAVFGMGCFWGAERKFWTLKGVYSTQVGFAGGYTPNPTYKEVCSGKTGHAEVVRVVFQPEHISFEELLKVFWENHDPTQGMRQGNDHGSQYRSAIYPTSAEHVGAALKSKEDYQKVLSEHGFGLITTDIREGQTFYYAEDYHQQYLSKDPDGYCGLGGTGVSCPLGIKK

[31] = HIV-1 Vif–A3G interaction blockers – biochemical, TR-FRET, GST-Vif 1-94, biotin-A3G peptide, dose response retest, primary screen (AID 1117319); type: functional;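 further: TR-FRET signal of purified GST-Vif binding a biotinylated A3G peptide; inhibitors lower the FRET signal by blocking Vif and A3G binding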
[32] = target: Aurora kinase B (Homo sapiens, UniProt Q96GD4); type: functional
Sequence of Aurora kinase B (Q96GD4 whole entry): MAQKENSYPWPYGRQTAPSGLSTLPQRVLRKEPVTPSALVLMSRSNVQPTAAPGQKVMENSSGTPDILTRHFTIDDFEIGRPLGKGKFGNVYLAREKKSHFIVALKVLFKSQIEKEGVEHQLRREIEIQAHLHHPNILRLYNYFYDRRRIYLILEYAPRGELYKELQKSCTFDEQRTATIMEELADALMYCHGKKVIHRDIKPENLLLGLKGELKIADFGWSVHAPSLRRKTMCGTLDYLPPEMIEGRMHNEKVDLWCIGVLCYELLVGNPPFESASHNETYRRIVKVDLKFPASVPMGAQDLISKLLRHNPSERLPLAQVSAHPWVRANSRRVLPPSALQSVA

Sequence of Benomyl/methotrexate resistance protein (P28873 whole entry): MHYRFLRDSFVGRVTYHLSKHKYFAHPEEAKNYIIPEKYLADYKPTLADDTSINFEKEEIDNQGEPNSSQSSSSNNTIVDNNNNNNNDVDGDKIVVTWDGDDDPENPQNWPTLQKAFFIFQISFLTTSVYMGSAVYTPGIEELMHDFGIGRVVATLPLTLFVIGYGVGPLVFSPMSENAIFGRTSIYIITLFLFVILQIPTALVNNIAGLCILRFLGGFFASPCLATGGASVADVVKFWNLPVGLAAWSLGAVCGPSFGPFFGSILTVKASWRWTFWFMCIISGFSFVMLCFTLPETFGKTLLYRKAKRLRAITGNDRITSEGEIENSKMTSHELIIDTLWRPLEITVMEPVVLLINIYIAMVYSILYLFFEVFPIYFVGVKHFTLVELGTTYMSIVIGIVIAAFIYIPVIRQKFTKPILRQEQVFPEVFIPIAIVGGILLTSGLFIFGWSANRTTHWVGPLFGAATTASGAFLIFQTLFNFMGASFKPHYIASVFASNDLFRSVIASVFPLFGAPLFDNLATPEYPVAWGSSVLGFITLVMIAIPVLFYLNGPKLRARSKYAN

In the case of Cc1cccc(C)c1-n1c(SCC(=O)N2CC(=O)Nc3ccccc32)nc2ccccc2c1=O, the EC50 [1] is reported as 0.01 µM (active).
With CCOC(=O)C1CCCN(C(=O)c2cn(C)c(=O)c3cc(OC)c(OC)cc23)C1 (centres undefined) the IC50 [2] was 14.1 µM (inactive).
In the case of COc1ccc(N(CC(=O)NCCc2cccc(C)c2)S(=O)(=O)c2c(C)noc2C)cc1, the IC50 [3] is reported as > 66.2 µM (inactive), the IC50 [4] is reported as > 49.8 µM (inactive) and the IC50 [5] is reported as 0.653 µM (active). The IC50 [6] was 7.14 µM (active), the IC50 [7] was > 88.8 µM (inactive) and the IC50 [8] was 2.27 µM (active).
In the case of CN1CCN(C(c2ccc(C(F)(F)F)cc2)c2ccc3cccnc3c2O)CC1 (centres undefined), the EC50 [9] is reported as > 150 µM (inconclusive), the EC50 [10] is reported as 9.1 µM (active) and the EC50 [11] is reported as 2.92 µM (active). The EC50 [12] was 10.3 µM (active), the EC50 [13] was 8.06 µM (active) and the EC50 [14] was 0.676 µM (active). For the same molecule, the EC50 [15] was 1.64 µM (active), the EC50 [16] was > 180 µM (inactive) and the EC50 [17] was 7.46 µM (active). The EC50 [18] was 2.91 µM (active), the AC50 [19] was 2.43 µM (active) and the EC50 [20] was 14 µM (active). The AC50 [21] was 6.73 µM (active).
For SC1=NC(C23CC4CC(CC(C4)C2)C3)=CC(c2ccc3c(c2)OCO3)N1 (centres undefined), the EC50 [11] was 13.6 µM (active), the EC50 [22] was 22.5 µM (active) and the EC50 [15] was 2.44 µM (active). For the same molecule, the EC50 [17] was > 60 µM (not active), the EC50 [18] was > 150 µM (not active) and the IC50 [23] was 15 µM (active). For the same molecule, the IC50 [24] was 56.8 µM (inactive) and the IC50 [25] was 3.52 µM (active).
With O=C(COc1ccc(Cl)cc1Cl)N(c1ccccn1)C1CCCCC1 the IC50 [26] was 0.0699 µM (active).
With C=CCNC(=O)CCC(=O)NNc1nc2ccccc2c2nc(-c3ccccc3)nn12 the IC50 [3] was > 66.2 µM (inactive), the IC50 [4] was > 49.7 µM (inactive) and the IC50 [5] was 1.2 µM (active). For the same molecule, the IC50 [6] was 6.87 µM (active), the IC50 [7] was > 88.8 µM (inactive) and the IC50 [8] was > 50 µM (inactive).
In the case of N#CC(c1c(Cl)cnn(Cc2cccc3ccccc23)c1=O)c1csc2ccccc12 (centres undefined), the IC50 [27] is reported as > 20 µM (inactive) and the IC50 [28] is reported as > 20 µM (inactive).
With CC(C#N)c1c(Cl)cnn(Cc2cccc3ccccc23)c1=O (centres undefined) the IC50 [27] was 3.1 µM (active) and the IC50 [28] was 3.1 µM (active).
With CC(=O)Nc1cc(-c2ccc(CO)cc2)cn2c(-c3cccc(C(F)(F)F)c3)cnc12 the EC50 [29] was > 89.2 µM (inactive).
In the case of NC(=S)N/N=C/c1ccc(-c2cccc([N+](=O)[O-])c2)o1, the IC50 [30] is reported as 155 µM (inactive) and the IC50 [31] is reported as > 100 µM (active).
In the case of O=C(O)c1ccccc1Nc1ccnc(Nc2ccc(O)cc2)n1, the Ki [32] is reported as 0.002 µM (active).
